Assays:
[1] = biological target: T1, Histone deacetylase 6 (Homo sapiens, UniProt Q9UBN7); assay: Inhibition of HDAC Enzyme Activity (In Vitro)
T1 sequence (Q9UBN7 whole entry): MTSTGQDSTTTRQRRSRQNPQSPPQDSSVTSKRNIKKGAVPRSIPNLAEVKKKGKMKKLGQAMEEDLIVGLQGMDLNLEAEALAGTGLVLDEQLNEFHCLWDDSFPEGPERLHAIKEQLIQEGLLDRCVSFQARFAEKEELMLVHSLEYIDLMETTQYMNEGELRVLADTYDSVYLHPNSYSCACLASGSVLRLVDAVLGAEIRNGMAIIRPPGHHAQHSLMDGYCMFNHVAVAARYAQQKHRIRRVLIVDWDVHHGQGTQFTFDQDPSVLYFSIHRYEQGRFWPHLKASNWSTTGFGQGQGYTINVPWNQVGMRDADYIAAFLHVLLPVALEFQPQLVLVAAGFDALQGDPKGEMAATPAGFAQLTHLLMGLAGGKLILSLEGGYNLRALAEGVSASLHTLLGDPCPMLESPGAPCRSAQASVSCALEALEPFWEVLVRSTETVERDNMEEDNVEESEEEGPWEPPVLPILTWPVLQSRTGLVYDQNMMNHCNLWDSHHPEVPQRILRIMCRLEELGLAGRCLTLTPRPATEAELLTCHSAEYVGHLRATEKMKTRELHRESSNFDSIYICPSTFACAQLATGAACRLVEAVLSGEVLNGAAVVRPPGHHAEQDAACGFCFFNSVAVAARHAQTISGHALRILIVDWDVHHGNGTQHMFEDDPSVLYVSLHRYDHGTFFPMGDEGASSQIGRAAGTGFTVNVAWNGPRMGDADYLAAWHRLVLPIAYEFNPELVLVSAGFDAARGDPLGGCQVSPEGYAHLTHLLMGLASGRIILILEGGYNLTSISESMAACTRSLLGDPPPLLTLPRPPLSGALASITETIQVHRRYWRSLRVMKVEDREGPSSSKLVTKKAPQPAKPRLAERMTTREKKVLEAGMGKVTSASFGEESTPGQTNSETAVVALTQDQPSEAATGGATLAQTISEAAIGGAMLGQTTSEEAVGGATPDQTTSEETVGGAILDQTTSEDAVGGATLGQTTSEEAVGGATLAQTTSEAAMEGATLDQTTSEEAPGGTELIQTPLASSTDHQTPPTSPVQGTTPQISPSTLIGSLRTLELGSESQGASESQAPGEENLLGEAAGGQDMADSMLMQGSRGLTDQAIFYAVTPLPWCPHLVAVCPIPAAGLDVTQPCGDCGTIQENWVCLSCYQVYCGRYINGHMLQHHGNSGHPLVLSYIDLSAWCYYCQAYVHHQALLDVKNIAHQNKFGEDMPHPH
Experimental: (§1) In the HDAC1 assay, the test substance was treated at concentrations of 100, 1000, and 10000 nM, and in the HDAC6 assay, the test substance was treated at concentrations of 0.1, 1, 10, 100, and 1000 nM.

[2] = biological target: Histone deacetylase 1 (Homo sapiens, UniProt Q13547); assay: Inhibition of HDAC Enzyme Activity (In Vitro)
Histone deacetylase 1, sequence (Q13547 whole entry): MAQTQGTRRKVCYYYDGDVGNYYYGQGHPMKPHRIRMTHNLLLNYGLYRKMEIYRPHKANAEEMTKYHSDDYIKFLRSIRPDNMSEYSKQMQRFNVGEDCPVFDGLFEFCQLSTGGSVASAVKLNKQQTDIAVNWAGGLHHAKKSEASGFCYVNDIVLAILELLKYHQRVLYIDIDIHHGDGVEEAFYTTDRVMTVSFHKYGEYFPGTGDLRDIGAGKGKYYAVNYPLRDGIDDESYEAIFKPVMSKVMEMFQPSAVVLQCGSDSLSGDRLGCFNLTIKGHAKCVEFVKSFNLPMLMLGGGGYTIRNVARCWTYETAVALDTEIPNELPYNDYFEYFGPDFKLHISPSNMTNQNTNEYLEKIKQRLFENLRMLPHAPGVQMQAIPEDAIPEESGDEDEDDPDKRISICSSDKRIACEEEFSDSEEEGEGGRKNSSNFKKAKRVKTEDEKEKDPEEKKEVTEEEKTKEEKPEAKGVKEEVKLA
Experimental: as §1

## CN1CCN(c2c(N(Cc3ccc(-c4nnc(C(F)F)o4)cc3F)c3cc(F)cc(-c4ccncc4)c3)c(=O)c2=O)CC1 [US20260028321, Compound 9]
[1]
  IC50: 54 nM
[2]
  IC50: > 10000 nM

Source: BindingDB's records for patent US20260028321 (Chong Kun Dang Pharmaceutical, 2026)
